The numbers were not newly measured in patent publication US20060201391A1, “Compositions having sustained-release insect repellency” (priority 2005, published 2006), which cites them from elsewhere.

This data set concerns mosquitoes, stable flies and deer ticks.

Regarding `C[C@H]1COC(=O)[C@@H]2[C@@H]1CC[C@@H]2C` [DHN, dihydronepetalactone], the “insect repellency compared with DEET” value is recorded as “substantially equivalent to DEET”.
